Reference: US6972287B1, “Method of inhibiting amyloid protein aggregation and imaging amyloid deposits” (Pfizer Inc., priority 1999, dated 2005)
Several values for one entry are separate records, joined by “and”; a condition that tells them apart may be missing. Equal entries are not always repeated.

Tests used:
Aβ(1-40) [1] = molecular target: T1, Aβ(1-40) (Homo sapiens, UniProt P05067); assay: BASSR (Beta-Amyloid Self-Seeding Radioassay), inhibitors of self-seeded amyloid fibril growth; format: biochemical; conditions: 30 μM soluble Aβ(1-40) + 125I-labeled Aβ(1-40), 37° C., 3 to 5 hours; replicate values; letter = synthetic lot; ppt = precipitate; V-shaped = inhibition followed by precipitation
T1 construct: […]; purchased Bachem, Torrance, Calif
T1 sequence (P05067 672-711 limits assumed): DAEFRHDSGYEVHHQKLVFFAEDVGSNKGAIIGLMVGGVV
Protocol: BASSR (Beta-Amyloid Self-Seeding Radioassay)
(§1) An assay for inhibitors of self-seeded amyloid fibril growth
Assay Buffer—50 mM sodium phosphate, pH 7.5, 100 mM NaCl, 0.02% NaN3, 1 M urea (filter and store at 4° C.).
(§2) Typically, the solution should be stored until no lag phase is seen in the assay.
^125I-labeled Aβ(1-40)—150K-350K cpm/μL in 100% acetonitrile—0.1% trifluoroacetic acid (TFA)—1% β-mercaptoethanol (aliquots stored at −20° C.). ^125I-labeled Aβ(1-40) can be made in accordance with the procedure set forth by H. LeVine, III in Neurobiol. Aging, 16, 755, (1995), which is hereby incorporated by reference, or this reagent may be purchased from Amersham, Arlington Heights, Ill.
The following are the amounts of the components of the reaction mixture sufficient for 50 assay wells:
• 1) Prepare reaction mixture above by mixing components and storing on ice. • 2) Pipet 14.5 μL of reaction mixture into each of 50 wells on a polypropylene U-bottom 96-well microtiter plate on ice. (Costar 3794). • 3) Add 1.7 μL of diluted compound to be tested to each well in a column of eight, including solvent control. Serial 3-fold dilutions from 1 mM (100 μM final) in assay buffer−urea=7 dilutions+zero. Each 96-well plate can therefore accommodate 11 samples+1 Congo Red control (0.039-5 μM final in 2-fold steps). • 4) Seal the plate with aluminum film (Beckman 538619) and incubate for 10 minutes on ice. • 5) Raise the temperature to 37° C. and incubate for 3 to 5 hours (depending on the lot of the peptide). • 6) Remove the aluminum film and add 200 μL/well of ice cold assay buffer with urea, collecting the radiolabeled fibrils by vacuum filtration through 0.2 μm pore size GVWP filters in 96-well plates (Millipore MAGV N22, Bedford, Mass.). Determine the radioactivity of the filters using standard methods well-known to those skilled in the art. BASST (Beta-Amyloid Self-Seeding, Thioflavin T)

Aβ(1-40) [2] = molecular target: T1, Aβ(1-40); assay: BASST (Beta-Amyloid Self-Seeding, Thioflavin T), inhibitors of self-seeded amyloid fibril growth; format: biochemical; conditions: 30 μM soluble Aβ(1-40), 37° C., 3 to 5 hours, thioflavin T fluorescence; replicate values; letter = synthetic lot; read-out: BASST (IC50 = μM)
Protocol: as §1
Assay Buffer—50 mM sodium phosphate, pH 7.5, 100 mM NaCl, 0.02% NaN3, 1 M urea (filter and store at 4° C.)
as §2
The following are the amounts of the components of the reaction mixture that result in each of the 50 assay wells:
• 1) Prepare the reaction mix above by mixing the components and storing on ice. • 2) Pipet 14.5 μL of reaction mixture into each of 50 wells of a polystyrene U-bottom 96-well microtiter plate (Corning 25881-96) on ice. • 3) Add 1.7 μL of diluted compound to be tested to each well in a column of eight, including solvent control. Serial 3-fold dilutions from 1 mM (100 μM final) in assay buffer−urea=7 dilutions+zero. Each 96-well plate can therefore accommodate 11 samples+1 Congo Red control (0.039-5 μM final in 2-fold steps). • 4) Seal the plate with aluminum film and incubate for 10 minutes on ice. • 5) Raise the temperature to 37° C. and incubate for 3 to 5 hours (depends on the lot of the peptide). • 6) Remove the aluminum film and add 250 μL/well of 5 μM thioflavin T (ThT) [T-3516, Sigma-Aldrich] in 50 mM glycine-NaOH, pH 8.5. Read fluorescence on a plate reader (ex=440 nm/20 nm; em=485 nm/20 nm) within 5 minutes. BAPA (Beta-Amyloid Peptide Aggregation)

Aβ (1-42) = molecular target: T2, Aβ (1-42) (Homo sapiens, UniProt P05067); assay: BATYM assay (Aβ (1-42) aggregation, Thioflavin T fluorescence); format: biochemical; conditions: Aβ 1-42 final concentration 100 μM, 37° C., 1 day, letter = synthetic lot
T2 construct: Required Aβ (1-42) (California Peptide) was dried from its hexafluoroisopropanol (HFIP) stock solution; purchased California Peptide
T2 sequence (P05067 672-713 limits assumed): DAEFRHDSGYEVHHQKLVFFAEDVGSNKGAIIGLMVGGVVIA
Protocol: Required Aβ (1-42) (California Peptide) was dried from its hexafluoroisopropanol (HFIP) stock solution. The Aβ (1-42) was dissolved in dimethylsulfoxide (DMSO) and then mixed with phosphate buffered saline (PBS) (pH 7.4). The mixed Aβ (1-42) solution was filtered with a 0.2 μm Omnipore membrane syringe filter Millipore, Bedford, Mass.). The compound to be tested in DMSO (50 times concentrate) was put into each well (0.5 μL/well) of a 96-well plate. The Aβ (1-42) solution was added into each well (24.5 μL/well). The plate was centrifuged at 1,000 g for 5 minutes and incubated at 37° C. for 1 day (Aβ 1-42; final concentration 100 μM).
After incubation Thioflavin T (ThT) (30 μM) solution in glycine-NaOH buffer (pH 8.5, 50 mM) was added into each well (250 μL/well), fluorescence was measured (ex=440/20 nm, em=485/20 nm) using a fluorescence plate reader. The inhibitory activity was calculated as the reduction of fluorescence with the following formula: Inhibition (%)={(F(Aβ)−F(Aβ+compound)}/{F(Aβ)−[…]}×100
The IC50s were calculated by a curve fitting program using the following equation. The data were obtained from two different experiments in triplicate.
x=Concentration of tested compound (M),

Aβ (1-40) peptide = molecular target: T3, Aβ (1-40) peptide (Homo sapiens, UniProt P05067); assay: BAPA (Beta-Amyloid Peptide Aggregation, pH 6.0, filtration); format: biochemical; conditions: Aβ (1-40) 33 μM, pH 6.0, 2 to 4 hours at room temperature; replicate values; letter = synthetic lot
T3 construct: 10 μL 0.5 mg/mL Aβ (1-40) peptide in 20% HFIP
T3 sequence (P05067 672-711 limits assumed): as the sequence (P05067 672-711 limits assumed) above
Protocol: Each 96-well plate can therefore accommodate 11 samples+1 Congo Red control (0.039-5 μM final in 2-fold steps). • 4) Seal the plate with aluminum film and incubate for 10 minutes on ice. • 5) Raise the temperature to 37° C. and incubate for 3 to 5 hours (depends on the lot of the peptide). • 6) Remove the aluminum film and add 250 μL/well of 5 μM thioflavin T (ThT) [T-3516, Sigma-Aldrich] in 50 mM glycine-NaOH, pH 8.5. […] The purpose of this assays is to provide a higher volume method of assaying the amount of beta amyloid aggregation using an endpoint assay based on filtration. In this assay, hexafluoroisopropanol (HFIP) is used to break down the initial amyloid peptide to a monomer state and use a concentration of 33 μM which is high enough so that aggregation will occur at pH 6.0 in several hours. Methods: […] Then, we incubate for 2 to 4 hours at room temperature. […] We wash the filter plate with 100 μL of the same phosphate buffer. Aggregation was detected on a Microbeta counter after impregnating the filters with Meltilex (1450-441) and is corrected for background.

SMILES	melting point [°C]	IC50 (Aβ(1-40) [1]) [µM]	IC50 (Aβ(1-40) [2])	IC50 (Aβ (1-42)) [µM]	IC50 (Aβ (1-40) peptide) [µM]
O=C(O)c1ccccc1Nc1ccc(CCCc2ccc(-n3cccc3)cc2)cc1 [Example 46, 2-(4-{3-[4-(1H-Pyrrol-1-yl)phenyl]propyl}phenylamino)benzoic acid]	131 to 136	> 100	6 µM	34.3	
CCN(CC)Cc1ccc(CCCc2ccc(Nc3ccccc3C(=O)O)cc2)cc1 [Example 50, 2-{4-[3-(4-Diethylaminomethylphenyl)propyl]phenylamino}benzoic acid]	137	> 100	> 100 µM	> 100	
O=C(O)c1ccccc1Nc1ccc(CCCc2cccc(N3CCCCC3)c2)cc1 [Example 54, 2-{4-[3-(3-Piperidin-1yl-phenyl)-propyl]-phenylamino}-benzoic acid]	59 to 61	> 100	0.4 µM	43.9	
O=C(O)c1ccccc1Nc1ccc(CCc2ccc(N3CC[C@@H]4CCCC[C@H]4C3)cc2)cc1 [Example 82, 2(4-{2-[(4aS,8aR)-4-(Octahydro-isoquinolin-2-yl)-phenyl]-ethyl}-phenylamino)-benzoic acid]	203 to 206	> 100	2 µM and 300 nM (2×)		
COc1ccc(Nc2ccc(CCCCc3ccc(Cl)c(Cl)c3)cc2)c(C(=O)O)c1 [Example 121, 2-{4-[4-(3,4-Dichloro-phenyl)-butyl]-phenylamino}-5-methoxy-benzoic acid]	155 to 158	> 100	1 µM		
O=C(O)c1ccccc1Nc1ccc(CCc2ccc(Nc3ccccc3C(=O)O)cc2)cc1 [Example 136, 2-{4-[2-(4-{2-Hydroxycarbonylphenylamino}phenyl)ethyl]-phenylamino}-benzoic acid]		> 100	3 µM	> 100	53
Nc1ccc(Nc2ccc(CCCCCc3ccc(Cl)c(Cl)c3)cc2)c(C(=O)O)c1 [Example 140, 5-Amino-2-{4-[5-(3,4-dichloro-phenyl)pentyl]-phenylamino}-benzoic acid]	182 to 184				
O=C(O)c1cccc(C(F)(F)F)c1Nc1ccc(CCc2ccc(Cl)c(Cl)c2)cc1 [Example 146, 2-{4-[2-(3,4-Dichloro-phenyl)-ethyl]-phenylamino}-3-trifluoromethyl-benzoic acid]		> 100	30 µM	> 100	> 60
CCCN(CCC)c1ccc(Nc2ccc(CCc3ccc(Cl)c(Cl)c3)cc2)c(C(=O)O)c1 [Example 149, 2-{4-[2-(3,4-Dichlorophenyl)-ethyl]-phenylamino}-5-dipropylamino-benzoic acid]		> 100	> 100 µM	> 100	> 60

Results, then the compound that gave them:

melting point [°C]	IC50 (Aβ(1-40) [1]) [µM]	IC50 (Aβ(1-40) [2])	IC50 (Aβ (1-42)) [µM]	IC50 (Aβ (1-40) peptide) [µM]	SMILES
57 to 62	25	10 µM	> 100		CCN(CC)C(=O)c1ccc(CCCc2ccc(Nc3ccccc3C(=O)O)cc2)cc1 [Example 48, 2-{4-[3-(4-Diethylcarbamoylphenyl)propyl]phenylamino}benzoic acid]
236 to 239	> 100	> 100 µM	> 100		O=C(O)c1ccc(CCCc2ccc(Nc3ccccc3C(=O)O)cc2)cc1 [Example 49, 2-{4-[3-(4-Carboxyphenyl)propyl]phenylamino}benzoic acid]
171 to 177	> 100	0.3 µM	30		O=C(O)c1ccccc1Nc1ccc(CCCc2ccc(N3CCCC3)cc2)cc1 [Example 53, 2-{4-[3-(4-Pyrrolidin-1-yl-phenyl)-propyl]-phenylamino}-benzoic acid]
74 to 78					COc1cc(Nc2ccc(CCCc3ccc(Cl)c(Cl)c3)cc2)c([N+](=O)[O-])cc1C(=O)O [Example 138, 4-{4-[3-(3,4-Dichloro-phenyl)propyl]-phenylamino}-2-methoxy-5-nitro-benzoic acid]
122 to 123					O=C(O)c1cc(F)ccc1Nc1ccc(CCCc2ccc(Cl)c(Cl)c2)cc1 [Example 139, 2-{4-[3-(3,4-Dichloro-phenyl)-propyl]-phenylamino}-5-fluoro-benzoic acid]
	> 100	7 µM	56.7	> 50	O=C(NS(=O)(=O)C(F)(F)F)c1ccccc1Nc1ccc(CCCc2ccc(Cl)c(Cl)c2)cc1 [Example 141, N-(2-{4-[3-(3,4-Dichloro-phenyl)-propyl]-phenylamino}-benzoyl)-C,C,C,-trifluoro-methanesulfonamide]
	> 100	2.1 µM	26.9	55	O=C(NS(=O)(=O)c1ccccc1)c1ccccc1Nc1ccc(CCCc2ccc(Cl)c(Cl)c2)cc1 [Example 142, N-(2-{4-[3-(3,4-Dichloro-phenyl)propyl]-phenylamino}-benzoyl)-benzenesulfonamide]
	> 100	10 µM	> 100	76	CCCCN(CCCC)c1ccc(Nc2ccc(CCc3ccc(Cl)c(Cl)c3)cc2)c(C(=O)O)c1 [Example 150, 5-Dibutylamino-2-{4-[2-(3,4-dichloro-phenyl)-ethyl]-phenylamino}-benzoic acid]
110 to 112					Nc1ccc(CCCc2ccc(Nc3ccccc3C(=O)O)cc2)cc1 [Example 159, 2-{4-[3-(4-Aminophenyl)propyl]phenylamino}benzoic acid]
